Measured values taken from patent US20210181109A1 (FUJIFILM Corporation, priority 2018, published 2021).

Columns and labels:
[1] = NAC depletion percent, HPLC-fluorescence detection
Method: (§1) 1) To a 50 mL vessel, 11.6 mg (±0.1 mg) of NAC is weighed; to this, a 25 mL measuring pipet is used to add 20 mL of 100 mmol/L phosphate buffer (pH: 8.0); and the content is gently stirred using a test tube mixer to achieve dissolution (2 mmol/L). 2) To a 500 mL vessel, 149.5 mL of this buffer is added using a 50 mL measuring pipet; to this, 0.5 mL of the above-described 2 mmol/L NAC solution is added; and the content is mixed by inversion to achieve 300-fold dilution (6.667 μmon).
(§2) The test substance undiluted solution is defined as an “undiluted solution”, and used. Incidentally, this “undiluted solution” may be appropriately diluted to, for example, 1/10, 1/100, or 1/1000, using an appropriate solvent, and the resultant solution may be used.
(§3) Subsequently, the solution having the maximum dissolution concentration is defined as an “undiluted solution”, and tested. Incidentally, this “undiluted solution” may be appropriately diluted to, for example, 1/10, 1/100, or 1/1000, using an appropriate solvent, and the resultant solution may be used.
(§4) The test substance is prepared at 1 mmol/L in any of solvents that are water, acetonitrile, acetone, and a 5 mass % dimethyl sulfoxide (DMSO)/acetonitrile solution and used as a test substance solution. As the solvent, a solvent in which the test substance dissolves at 1 mmol/L is used; when the test substance is soluble in a plurality of solvents, the solvent is selected in the following order of decreasing precedence: water, acetonitrile, acetone, and 5 mass % DMSO/acetonitrile.
(§5) Test substance solutions are prepared on a 96-well plate (U96 PP-0.5 ML NATURAL, Thermo Fisher Scientific Inc. (NUNC)) mainly using a 12-channel pipette, and a reagent is added in accordance with the following formula.
(§6) Nucleophilic reagent (NAC and NAL): 150 μL
(§7) Test substance solution: 50 μL
(§8) The plate is tightly sealed using a plate sealing (Resistant embossed seal, SHIMADZU GLC Ltd.), and stirred using a plate shaker (Titramax 100, Heidolph Instruments GmbH & CO. KG). The plate is subjected to spinning down using a centrifuge, and then to incubation at 25° C., for 24 hours, in a light-shielded state.
(§9) After the incubation for 24 hours, the plate sealing is removed; to each sample, 50 µL of the reaction stopping solution is added to stop the reaction.
(§10) The HPLC measurement conditions for the nucleophilic reagents are as follows.
(§11) From the average values (each, n=3) of peak areas of the post-reaction unreacted NAC or NAL and the blank-test (after performing the reaction step without addition of the test substances) NAC or NAL, the following formula is used to calculate the depletion percent of NAC or NAL.
(§12) NAC depletion percent (% depletion)=[1−(Average value of peak areas of post-reaction unreacted NAC/Average value of peak areas of blank-test (after performing the reaction step without addition of the test substances) NAC)]×100
(§13) The average value of peak areas of the post-reaction unreacted NAC is the average value of areas obtained by measuring three times post-reaction unreacted NAC. The average value of peak areas of blank-test (after performing the reaction step without addition of the test substances) NAC is the average value of areas obtained by measuring three times blank-test (after performing the reaction step without addition of the test substances) NAC.
(§14) The reactions were each performed on a 96-well plate, and the number of samples of each case was set to n=3. In addition, as controls, reaction solutions including the solvent alone were prepared. The reaction solutions were prepared so as to have a NAC or NAL concentration of 5 μmon. To the reaction solutions after the lapse of 24 hours, a trifluoroacetic acid (TFA) aqueous solution was added such that the final concentration became 0.5% (v/v) TFA. Subsequently, HPLC was performed for measurements by two detection methods that were light absorption detection using a photodiode array (PDA) detector, and fluorescence detection using a fluorescence detector.

[2] = NAL depletion percent, HPLC-fluorescence detection
Method: as §1, with “12.6” for “11.6”, “NAL” for “NAC”, “10.2);” for “8.0);”, “mixture” for “mixer”, “mmol/L NAL solution).” for “mmol/L).”, “μmol/L).” for “μmon).”
as §2, §3, §4, §5, §6, §7, §8, §9, §10, §11
(§15) NAL depletion percent (% depletion)=[1−(Average value of peak areas of post-reaction unreacted NAL/Average value of peak areas of blank-test (after performing the reaction step without addition of the test substances) NAL)]×100
(§16) The average value of peak areas of post-reaction unreacted NAL is the average value of areas obtained by measuring three times post-reaction unreacted NAL. The average value of peak areas of blank-test (after performing the reaction step without addition of the test substances) NAL is the average value of areas obtained by measuring three times blank-test (after performing the reaction step without addition of the test substances) NAL.
as §14

[3] = Average score of NAC and NAL depletion and prediction of skin allergenicity, fluorescence method; conditions: for Average score: test substance solution 1 mmol/L
Method: (§17) The average value (Average Score) of NAC and NAL depletion percents is calculated. In the resultant value, the second decimal place is rounded off.
(§18) Average value (Average Score) of NAC and NAL depletion percents=(NAC depletion percent+NAL depletion percent)/2
(§19) The depletion percent of at least one of NAC or NAL or the average score of the depletion percents of NAC and NAL is calculated, and whether or not the test substances are “allergenic substances” or “non-allergenic substances” is determined:
(§20) (1) in a case of performing evaluation based on the average value of the depletion percent of NAC and the depletion percent of NAL,
(§21) In the following Tables, S represents as being an allergenic substance and NS represents as being a non-allergenic substance.

[4] = NAC depletion percent, HPLC-UV detection (281 nm); conditions: Reference (UV method)
Method: as §1, §2, §3, §4, §5, §6, §7, §8, §9, §10, §11, §12, §13, §14

[5] = NAL depletion percent, HPLC-UV detection (281 nm); conditions: Reference (UV method)
Method: as §1, with “12.6” for “11.6”, “NAL” for “NAC”, “10.2);” for “8.0);”, “mixture” for “mixer”, “mmol/L NAL solution).” for “mmol/L).”, “μmol/L).” for “μmon).”
as §2, §3, §4, §5, §6, §7, §8, §9, §10, §11, §15, §16, §14

[6] = Average score of NAC and NAL depletion and prediction of skin allergenicity, UV method; conditions: Reference (UV method); for Average score: test substance solution 1 mmol/L
Method: as §17, §18, §19, §20, §21

[7] = Fluorescence method, non-allergenic substance
[8] = Fluorescence method, skin allergenicity prediction
[9] = single substance, test substance solution 1 mmol/L, fluorescence method
[10] = single substance, fluorescence method
[11] = single substance, test substance solution 1 mmol/L
[12] = single substance, fluorescence method, criterion average score […]
[13] = single substance, criterion average score […]

SMILES	NAC depletion (%) [1, 7] [%]	NAL depletion (%) [2, 7] [%]	Prediction result [3, 8]	NAC depletion (%) ([4]; non-allergenic substance)	NAL depletion (%) ([5]; non-allergenic substance)	Prediction result ([6]; skin allergenicity prediction)	NAC depletion (%) [1, 9] [%]	NAL depletion (%) [2, 9] [%]	Average score [3, 10] [%]	NAC depletion (%) [4, 11] [%]	NAL depletion (%) [5, 11] [%]	Average score ([6]; single substance) [%]	Prediction result [3, 12]	Prediction result [6, 13]
CCCCBr [1-Bromobutane]	0.0	0.0	NS (NS represents as being a non-allergenic substance)	0.1	2.4	NS (NS represents as being a non-allergenic substance)								
CC(=O)C(C)=O [2,3-Butanedione]							45.2	17.7	31.4	41.2	25.5	33.4		
O=[N+]([O-])c1ccc(Cl)c([N+](=O)[O-])c1 [2,4-Dinitrochlorobenzene]							91.6	0.0	45.8	89.3	6.1	47.7	S (S represents as being an allergenic substance)	S (S represents as being an allergenic substance)
CC(=O)C1CCCCC1=O (stereo not shown) [2-Acetylcyclohexanone]	3.5	0.0	NS (NS represents as being a non-allergenic substance)	1.3	0.3	NS (NS represents as being a non-allergenic substance)								
C=C(C)C(=O)OCC(C)O (stereo not shown) [2-Hydroxypropyl methacrylate]	2.0	0.2	NS (NS represents as being a non-allergenic substance)	2.4	2.2	NS (NS represents as being a non-allergenic substance)								
O=C(O)c1ccc(O)cc1 [4-Hydroxybenzoic acid]	2.9	0.1	NS (NS represents as being a non-allergenic substance)	0.0	−1.4	NS (NS represents as being a non-allergenic substance)								
COc1ccc(C(C)=O)cc1 [4′-Methoxyacetophenone]	1.2	0.0	NS (NS represents as being a non-allergenic substance)	3.3	3.3	NS (NS represents as being a non-allergenic substance)								
CC(=O)C(=O)CC(C)C [5-Methyl-2,3-hexanedione]							14.8	26.1	20.4	6.4	34.8	20.6	S (S represents as being an allergenic substance)	S (S represents as being an allergenic substance)
Cc1ccc2oc(=O)ccc2c1 [6-Methylcoumarin]	1.3	0.1	NS (NS represents as being a non-allergenic substance)	0.0	1.0	NS (NS represents as being a non-allergenic substance)								
O=C(OCc1ccccc1)c1ccccc1 [Benzyl benzoate]							0.0	0.3	0.1	0.0	2.8	1.4		
O=c1ccc2ccccc2o1 [Coumarin]	1.2	0.4	NS (NS represents as being a non-allergenic substance)	0.5	3.9	NS (NS represents as being a non-allergenic substance)								
CCOC(=O)c1ccccc1C(=O)OCC [Diethyl phthalate]	0.0	0.2	NS (NS represents as being a non-allergenic substance)	0.0	1.7	NS (NS represents as being a non-allergenic substance)								
